Where “and” joins values, the source holds several entries; their conditions need not be identical. Identical values can stand only once. Positions of bridges follow the written chain, without caps; N, C: chain ends. Non-standard residues stand in square brackets, D forms with d. Residues, ends and D or L forms follow the SMILES beside them. *: point of attachment. X1 = C=Cc1c(C)c2cc3nc(c(CC(=O)O)c4[nH]c(cc5nc(cc1[nH]2)C(C)=C5CC)c(C)c4C(=O)O)[C@@H](CCC(=O)*)[C@@H]3C
Key:
K562 sst2+ cells [1] = assay: Cellular uptake in K562 sst2+ and WT cells; format: cell-based, human; conditions: 1 µM; for uptake in sst2+ cells compared to WT cells (factor): serum-free and 5% FCS medium, fluorescence of lysate, λexc = 405 nm
Method: Stock solutions of Ce6 and Ce6-conjugates (1 mM) were dissolved in 80% DMSO and were stored in the dark at −20°C. Before experiments, the solutions were diluted to a concentration of 0.1 mM in 20% DMSO. K562 sst2+ or WT (3×10^5) in 1 ml RPMI 1640 serum-free or supplemented with 5% FCS were incubated with Ce6 or with conjugate (1 µM) for 15 min to 24 h in the dark at 37°C. After incubation, the cells were centrifuged, cell pellet dissolved in 2% SDS and fluorescence emission spectra (λexc = 405 nm) recorded. Photosensitizer concentrations were calculated in triplicate according to a calibration curve generated by mixing a known concentration of photosensitizer with a lysated control samples.

K562 sst2+ cells [2] = assay: In vitro PDT phototoxicity, K562 sst2+ cells; format: cell-based, human
Method: (§1) In vitro PDT experiments were performed to determine the phototoxicity of free Ce6 and conjugates. K562 sst2+ and WT cells were seeded in L-polylysine-coated (10 µg/ml) 96-well (8×10^3/well) and 24-well (4×10^4/well) and incubated overnight in 5% CO2 at 37°C. […] After incubation, cells were washed. Fresh serum-free medium was added, and cells were illuminated with 652 nm to a dose from 0.5 to 5 J cm^−2 at 5 mW.cm^−2. Thereafter, serum-containing medium was added and cells were allowed to grow for an additional 3 days in 5% FCS medium. Toxicity was determined by: measurement of DNA contents using the bisbenzimide fluorescent dye (Hoechst 33258, Boehring Diagnostics, CA, USA) and measurement of mitochondrial dehydrogenase cleavage of WST-1 reagent (Roche Diagnostics, Germany), [39]. Experiments were done in triplicates.

[3] = Photobleaching under 652 nm irradiation in PBS; format: physicochemical; conditions: for kblA, rate constant of initial absorption bleaching: PBS pH = 7.4, 652 nm irradiation at 5 mWcm^-2, O.D. = 0.014 at 652 nm, aerobic, stirring
Method: Photobleaching measurements. The loss of photosensitizer absorbance and fluorescence during irradiation was used to monitor photobleaching. Solutions of Ce6 and Ce6-conjugates were prepared in PBS pH = 7.4. The concentration of photosensitizers were adjusted so that all absorb the same number of photons at irradiated region (O.D. = 0.014 at the λirr. = 652 nm (Biolitec pharma, UK). Data was acquired in quartz cuvettes in aerobic conditions using stirring under uniform, measured irradiation at 5 mWcm^-2. At intervals, the cuvette was removed from magnetic stirrer and absorption and fluorescence emission spectrum (λexc = 405 nm) acquired. The initial absorption bleaching rate constants (kblA) for Ce6 and conjugates were evaluated as reported.

[4] = PBS pH = 7.4; used as reference; cited from earlier work
[5] = PBS pH = 7.4; used as reference; cited from earlier work; remark: listed apart in the source
Text: The fluorescence quantum yield of Ce6 in neutral pH was similar to conjugates 1 (ΦF = 0.18 for Ce6 and ΦF = 0.20 for 1).

[6] = pH titration of fluorescence/absorbance (pKa); format: physicochemical; conditions: Fmax/A(λexc) versus pH, sigmoidal fit; PBS titrated with HNO3 and NaOH over pH 4.0-8.5; 0.8 µM; λexc = 408 nm
Method: pH measurements. The pH titration of PBS was performed with HNO3 and NaOH over pH 4.0-8.5. The final concentration of Ce6 and Ce6-conjugates in solution was 0.8 µM. The pH was measured by Sentron pH meter (Sentron Europe, NL) and the absorption and fluorescence emission (λexc = 408 nm) profiles of solutions were recorded. The inflection point of titration curves (pKa) were evaluated as reported. Briefly, the results of fluorescence titrations are presented in terms of a plot of fluorescence intensity as a function of pH with the constant concentration of the compound used throughout measurements. However, variations of fluorescence intensity are due to at least two contributions: the changes of molar extinction coefficient (differed absorbed intensity) and the changes of quantum efficiency with pH. To eliminate the influence of the molar extinction coefficient variations, the ratio of fluorescence intensity at the peak position to the absorbance at the excitation wavelength was plotted, followed by sigmoidal function fitting procedure (Figures S2-S4).

[7] = 1-Octanol/PBS partition coefficient; format: physicochemical
Method: Partition coefficient. Stock solutions of Ce6 and conjugates (0.6 mM) were prepared in DMSO. Lipophilicity was characterized by their partition coefficient Poct/buffer = Coct/Cbuffer between two solvents 1-octanol (oct) and PBS, pH = 7.4 (buffer). Measurements were carried out in duplicates as described by Cunderlikova et al.

[8] = Steady-state absorption and fluorescence in PBS; format: physicochemical; conditions: PBS pH = 7.4
Method: Steady-State Fluorescence and Absorption Measurements. The fluorescence quantum yields (ΦF) of Ce6 and conjugates in PBS pH 7.4 were determined by a relative method. Ce6 in the buffer at pH 7.4 with the quantum yield of 0.18 [24,32,33] was used as a reference.
The absorption profile of Ce6 and conjugate in PBS of concentration (0.06–1µM) was recorded in Shimadzu spectrophotometer (UV-2101 PC, Duisburg, Germany).
The fluorescence emission of photosensitizers was recorded in a Perkin-Elmer spectrofluorimeter (LS 50B, Massachussetts, USA). Light at 408 nm was used for excitation. The concentration range of compounds matched to the O.D. up to 0.1.

[9] = test system: sst2+ AR42J acinar pancreas tumors; assay: Intra-vital fluorescence pharmacokinetics in AR42J tumors in rat skin-fold chambers; format: in vivo; conditions: i.v. tail vein, conjugate 1 0.67 mg/kg, Ce6 0.2 mg/kg, rat skin-fold chamber
Method: Intra-vital confocal fluorescence imaging was performed in single sided rat skin-fold chambers transplanted with sst2 ^+ AR42J acinar pancreas tumors as described previously. The study was approved by the animal experimental committee of the Erasmus MC. Chambers were prepared in 12 animals divided into three groups. […] The first group of animals received Ce6 at a dose of 0.2 mg/kg, the second group received conjugate 1 at a dose of 0.67 mg/kg such that the same number of Ce6 molecules were administered to each animal; (equivalent Ce6 concentration of 2.011×10^−4 M).
Animals were anesthetized using isoflurane/O2 and autofluorescence images were recorded. Drug was administered intravenously into the tail vein. Fluorescence images were acquired 5 and 20 minutes after conjugate administration after which the animal was allowed to recover. Subsequent fluorescence images were acquired under anesthesia at 1, 4, 24, 72 and 96 hrs. […] Confocal fluorescence imaging (LSM 510 Meta (Zeiss, Germany)) was performed using a 40× objective. The distribution of Ce6 fluorescence was mapped under 514 nm laser excitation in the lambda mode (539–753 nm). […] Spectra acquired from individual pixels were analyzed as a linear combination of basis spectra and fitted using a singular value decomposition algorithm. The fluorescence of Ce6 and conjugate 1 was determined in ROIs. […]

[10] = Singlet oxygen quantum yield (SOSGR photooxidation); format: physicochemical; conditions: PBS pH = 7.4; SOSGR 1 µM; relative to ΦΔ = 0.64 of Ce6; in duplicate
Method: Singlet Oxygen Quantum Yield Measurements. Photooxidation of Singlet Oxygen Sensor Green Reagent (SOSGR) (Molecular Probes, NL) was used to determine the singlet oxygen formation by Ce6 and Ce6-conjugates. We used SOSGR because of its high selectivity for singlet oxygen and low sensitivity to hydroxyl radicals/superoxides. Stock solution of SOSGR (5 mM) was prepared in methanol. The final concentration of SOSGR within the photosensitizer solution in PBS pH 7.4 was 1 µM. The irradiation was performed the same as for photobleaching measurements described above. The singlet oxygen quantum yields (Φ?) of conjugates in PBS were determined in duplicate by a relative method with a Φ? = 0.64 of Ce6 in the PBS at pH 7.4 as reference.

sst2 = molecular target: T1, sst2 (Homo sapiens, UniProt P30874); assay: Displacement of [125I]-SS14 binding, membrane preparations of K562 sst2+ cells; conditions: ratio of IC50 values, [125I]-SS14 displacement
T1 construct: expressed in transfected cells; host or cells: K562 (human erythroleukemic) cells stably transfected with LZRS-lyt2-IRES-sst2; membrane preparations
Method: Copy DNA of the human sst2 receptor was merged into a LZRS-lyt2-IRES plasmid background (lyt2 being the mouse CD8 receptor). The calcium precipitation method was used to transfect non-adherent K562 cells with the LZRS-lyt2-IRES-sst2. Expression of lyt2 was evaluated by means of FACS analysis using FITC labeled anti-mouse CD8 antibody (BD PharMingen, Netherlands), 1∶160 diluted in FACS-buffer. Clones were grown form Lyt2 positive isolated cells. Vital clones were cultured and tested in time for stability of sst2 receptor expression, by means of both FACS analysis (using FITC labeled octreotate 200 nM) as well as sst2 mRNA expression by RT-PCR as previously described. […] K562 cells were grown in RPMI 1640 containing L-glutamine, 10% heat-inactivated FCS, 50 µg/ml penicillin and 50 µg/ml streptomycin, and were maintained in an incubator at 37°C in an humidified atmosphere of 5% CO2.
The binding potency of Ce6-conjugates to sst2 on K562 sst2 ^+ cells was evaluated on cell membrane preparations.

K562 WT cells = assay: In vitro PDT phototoxicity, K562 WT cells; format: cell-based, human; conditions: 5 J.cm^−2, 652 nm; with or without Octreotide co-treatment
Method: as §1

T1 sequence (P30874 whole entry): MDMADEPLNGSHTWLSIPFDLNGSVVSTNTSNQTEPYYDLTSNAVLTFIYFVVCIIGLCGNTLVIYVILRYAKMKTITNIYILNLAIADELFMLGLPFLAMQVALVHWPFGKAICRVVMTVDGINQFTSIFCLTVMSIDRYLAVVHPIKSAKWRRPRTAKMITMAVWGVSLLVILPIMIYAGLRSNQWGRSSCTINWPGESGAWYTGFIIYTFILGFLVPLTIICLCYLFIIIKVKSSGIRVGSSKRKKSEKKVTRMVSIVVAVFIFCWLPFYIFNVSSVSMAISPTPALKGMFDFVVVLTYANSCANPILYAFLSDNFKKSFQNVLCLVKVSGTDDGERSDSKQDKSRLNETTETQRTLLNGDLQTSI

Compound	uptake in sst2+ cells compared to WT cells (factor) (K562 sst2+ cells [1])	kblA, rate constant of initial absorption bleaching [3]	pKa, inflection point of pH titration curve [6]	full width at half maximum of the Q(0,0) absorption band [8] [nm]	full width at half maximum of the Soret absorption band [8] [nm]	maximum of fluorescence band [8] [nm]	maximum of the Q(0,0) absorption band [8] [nm]	maximum of the Soret absorption band [8] [nm]	further results
C=Cc1c(C)c2cc3nc(c(CC(=O)O)c4[nH]c(cc5nc(cc1[nH]2)C(C)=C5CC)c(C)c4C(=O)O)[C@@H](CCC(=O)O)[C@@H]3C [Ce6, Chlorin e6]	same result as for conjugate 2	25.69 x 10^−2 J^−1 cm^2	6.71 and 6.71±0.0947	21	27	661	655	402	concentration taken up by sst2+ cells (K562 sst2+ cells [1]; 4 h incubation, K562 sst2+): 90 nM; cell survival after PDT compared to control cells (K562 sst2+ cells [2]; K562 sst2+, 1 µM, 4 h incubation, serum-free, 652 nm, 5 J.cm^−2, read after 3 days): almost complete inhibition of cell viability; light dose from which phototoxicity was seen (K562 sst2+ cells [2]; K562 sst2+, 1 µM, 4 h incubation, 652 nm): 0.5 J.cm^−2; effect on cell growth of photosensitizer alone in the absence of light (K562 sst2+ cells [2]; dark toxicity, K562 cells): no effect on cell growth; photostability ([3]; PBS, 652 nm irradiation, fluorescence bleaching): low photostability; ΦΔ, singlet oxygen quantum yield (reference value) [4]: 0.64 and 0.64±0.08; ΦF, fluorescence quantum yield (reference value) [5]: 0.18; LogP, logarithm of partition coefficient ([7]; 1-octanol / PBS pH = 7.4, Poct/buffer = Coct/Cbuffer, stock 0.6 mM in DMSO, duplicates): 0.005±0.05; time of fluorescence peak in tumor tissue [9]: gradually increased over the first 3 days
C=Cc1c(C)c2cc3nc(c(CC(=O)O)c4[nH]c(cc5nc(cc1[nH]2)C(C)=C5CC)c(C)c4C(=O)O)[C@@H](CCC(=O)N[C@H](Cc1ccccc1)C(=O)N[C@H]1CSSC[C@@H](C(=O)N[C@H](C(=O)N[C@@H](CCCCN)C(=O)N[C@@H](CCCCN)C(=O)N[C@@H](CCCCN)C(=O)N[C@H](Cc2ccccc2)C(=O)N[C@H]2CSSC[C@@H](C(=O)N[C@H](C(=O)O)[C@@H](C)O)NC(=O)[C@H]([C@@H](C)O)NC(=O)[C@H](CCCCN)NC(=O)[C@@H](Cc4c[nH]c5ccccc45)NC(=O)[C@H](Cc4ccc(O)cc4)NC2=O)[C@@H](C)O)NC(=O)[C@H]([C@@H](C)O)NC(=O)[C@H](CCCCN)NC(=O)[C@@H](Cc2c[nH]c4ccccc24)NC(=O)[C@H](Cc2ccc(O)cc2)NC1=O)[C@@H]3C [Conjugate 2, Ce6-[Tyr3]-octreotate-K3-[Tyr3]-octreotate] (X1-[dF]CY[dW]KTCTKKK[dF]CY[dW]KTCT-OH; disulfide 2-7, 13-18)	no difference	22.70 x 10^−2 J^−1 cm^2	6.28±0.035	26	42	665	661	405	ΦΔ, singlet oxygen quantum yield [10]: 0.59±0.03; fold higher potency than conjugate 1 (sst2): ~5 ×; effect of Octreotide co-treatment (10^−5 M) on phototoxicity (K562 sst2+ cells [2]; K562 sst2+, 5 J.cm^−2, 652 nm): not inhibited by Octreotide co-treatment; PDT toxicity in K562 WT cells (K562 WT cells): comparable with the PDT activity on K562 sst2+ cells; fold higher accumulation in 1-octanol than in buffer ([7]; 1-octanol / PBS pH 7.4): > 600 ×; logD ([7]; 1-octanol / PBS pH = 7.4, Poct/buffer = Coct/Cbuffer, stock 0.6 mM in DMSO, duplicates, read-out: LogP, logarithm of partition coefficient): 2.82 ± 0.34; ΦF, fluorescence quantum yield ([8]; relative method, Ce6 (0.18) as reference, excitation 408 nm): 0.03

Reference: article PMC4128677, “Somatostatin Analogues for Receptor Targeted Photodynamic Therapy” (PLoS ONE, 2014)
